Assay results as given in patent US7297551B2, “Recombinant proteins and peptides for endotoxin biosensors, endotoxin removal, and anti-microbial and anti-endotoxin therapeutics” (priority 1998, dated 2007).

Experiments:
[1] = molecular target: T1, SSCrFCES (LPS-binding domain of C. rotundicauda Factor C, rFCES amino acids 29-330, numbered as in SEQ ID NO: 4) (Carcinoscorpius rotundicauda, UniProt Q26422); test: Surface plasmon resonance binding to immobilized lipid A; details: 400 ng/100 ul SSCrFCES
T1 construct: rFCES (amino acids 29-330); made in house; host or cells: Drosophila S2 cells
T1 sequence (Q26422 29-330): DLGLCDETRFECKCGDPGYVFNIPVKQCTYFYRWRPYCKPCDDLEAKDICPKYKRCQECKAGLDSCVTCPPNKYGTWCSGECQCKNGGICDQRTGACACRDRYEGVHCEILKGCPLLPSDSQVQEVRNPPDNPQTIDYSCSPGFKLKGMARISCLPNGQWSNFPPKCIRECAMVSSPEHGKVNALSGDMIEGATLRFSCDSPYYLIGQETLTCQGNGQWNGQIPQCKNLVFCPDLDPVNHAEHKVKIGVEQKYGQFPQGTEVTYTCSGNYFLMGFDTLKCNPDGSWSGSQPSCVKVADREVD
Description: Recognition of lipid A by the abovenamed secreted recombinant proteins and peptides was, performed with a BIAcore X™ biosensor instrument and an HPA sensor chip. Briefly, lipid A at 0.5 mg/ml in PBS was immobilized to a HPA sensor chip (Pharmacia) according to the manufacturer's specification. In all experiments, pyrogen-free PBS was used as the running buffer at a flow rate of 10 μl/min.
With purified SSCrFCES, 4 μg/ml was injected into the flow cell at a rate of 10 μl/min, and the binding response was measured as a function of time. Following injection of SSCrFCES, a solution of INDIA™ HisProbe™-HRP antibody, diluted in PBS to 400 μg/ml, was also injected to cause a shift in SPR in order to further confirm that SSCrFCES binds to lipid A. For regeneration, 100 mM of NaOH solution was injected for 5 minutes. Similar lipid A binding analysis was carried out with SSCrFCsushi-GFP fusion proteins.

[2] = molecular target: T2, rFCEE (truncated C. rotundicauda Factor C, CrFC21EE, amino acids 1-766, from P. pastoris) (Carcinoscorpius rotundicauda, UniProt Q26422); test: Modified Western blot of LPS/lipid A; format: binding; details: compared with rFC
T2 construct: Pichia pastoris, Biomax-50 enriched
T2 sequence (Q26422 1-766): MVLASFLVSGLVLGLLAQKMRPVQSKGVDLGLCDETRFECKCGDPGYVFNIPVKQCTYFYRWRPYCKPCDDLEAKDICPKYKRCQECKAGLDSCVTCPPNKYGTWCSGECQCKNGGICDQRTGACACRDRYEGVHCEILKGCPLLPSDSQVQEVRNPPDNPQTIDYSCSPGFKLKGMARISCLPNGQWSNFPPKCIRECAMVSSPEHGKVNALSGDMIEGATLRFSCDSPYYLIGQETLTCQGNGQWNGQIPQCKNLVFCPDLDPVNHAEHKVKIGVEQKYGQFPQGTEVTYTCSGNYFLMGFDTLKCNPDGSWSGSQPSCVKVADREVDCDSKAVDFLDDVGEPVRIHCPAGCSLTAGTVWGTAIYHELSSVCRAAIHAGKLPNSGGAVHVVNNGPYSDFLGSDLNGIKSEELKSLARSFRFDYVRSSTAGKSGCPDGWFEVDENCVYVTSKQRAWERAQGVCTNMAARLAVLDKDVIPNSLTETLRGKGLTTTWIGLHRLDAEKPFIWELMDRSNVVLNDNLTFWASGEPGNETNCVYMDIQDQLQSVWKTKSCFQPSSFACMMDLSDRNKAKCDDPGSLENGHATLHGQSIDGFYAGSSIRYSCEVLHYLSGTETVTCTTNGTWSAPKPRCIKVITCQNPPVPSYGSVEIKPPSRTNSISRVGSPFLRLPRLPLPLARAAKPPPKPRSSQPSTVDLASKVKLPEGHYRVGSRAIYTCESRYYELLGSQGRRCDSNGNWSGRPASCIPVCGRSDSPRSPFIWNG
Description: LPS from E. coli 055:B5 (Sigma) was reconstituted to 2 μg/μl, and diphosphoryl lipid A from E. coli K12, D31m4 LPS (List Biologicals, Inc., USA) was made up to 1 μg/μl. The LPS-binding assay was based on modifications of earlier described protocols (45,61). Briefly, 10 μg aliquots of LPS/lipid A were electrophoresed on a denaturing 15% SDS-polyacrylamide gel and electroblotted onto Immobilon™ PVDF membrane. The membrane was cut into strips and each LPS/lipid A strip was subsequently incubated with 300 μg of proteins containing rFC. Detection of rFC binding to lipid A was accomplished by incubation with anti-Factor C antibody followed by alkaline phosphatase-conjugated secondary goat anti-rabbit antibody (Dako) and BCIP/NBT colorimetric substrate (Moss, Inc., USA).

lipid A
saturation of lipid A [1]: 92%
binding to lipid A moiety of LPS [2]: less strongly
